Our source for the EC50 values is patent publication US11897851B2, “Heterocyclic GLP-1 agonists” (Gasherbrum Bio, Inc., priority 2021, dated 2024).

A value given as a limit tells only on which side of the number the result lay.

For the experiment, the target named is T1, GLP-1 Receptor (Homo sapiens, UniProt P43220).
T1 construct: host or cells: HEK293/GLP1R/CRE-LUC (HEK293/CRE-Luc stably expressing the GLP-1 receptor)
T1 sequence (P43220 24-463, species assumed): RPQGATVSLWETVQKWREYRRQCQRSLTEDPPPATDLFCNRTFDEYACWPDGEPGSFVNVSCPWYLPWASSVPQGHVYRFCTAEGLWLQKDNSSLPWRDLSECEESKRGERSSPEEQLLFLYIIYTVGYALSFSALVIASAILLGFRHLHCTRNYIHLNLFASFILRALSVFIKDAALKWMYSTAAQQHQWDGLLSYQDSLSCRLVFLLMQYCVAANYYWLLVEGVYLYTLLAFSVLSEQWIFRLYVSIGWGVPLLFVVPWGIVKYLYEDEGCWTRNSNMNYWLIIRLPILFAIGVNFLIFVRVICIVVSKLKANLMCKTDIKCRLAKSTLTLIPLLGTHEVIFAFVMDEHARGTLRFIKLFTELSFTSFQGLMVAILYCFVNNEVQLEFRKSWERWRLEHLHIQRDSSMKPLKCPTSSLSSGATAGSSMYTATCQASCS
The experiment is described as follows: GLP-1R agonist cAMP stimulation assay (HEK293/GLP1R/CRE-LUC cells, Cisbio cAMP dynamic 2 kit).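 Further: compounds tested in half-log serial dilution, cAMP detected with cAMP-d2 and anti-cAMP cryptate antibody reagents after 1 h at room temperature.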 It is filed as cell-based. To be noted: HEK293/CRE-Luc cell line stably expressing the GLP-1 Receptor; 1000 cells/well; 30 min at 37° C.; 0.5 mM IBMX, 0.1% BSA; read-out: GLP1R cAMP Stimulation DR: EC50.
Consider `O=C(O)CCc1ccc(CN2CCC(c3cccc(OCc4ccc(Cl)cc4F)n3)CC2)c(=O)[nH]1` [Compound 121, 3-(5-((4-(6-((4-chloro-2-fluorobenzyl)oxy)pyridin-2-yl)piperidin-1-yl)methyl)-6-oxo-1,6-dihydropyridin-2-yl)propanoic acid], for which the EC50 – broadly, the midpoint of the concentration-response curve – is greater than 1000 nM.
Regarding `CC(C)(Oc1ccc(CN2CCC(c3cccc(OCc4ccc(Cl)cc4F)n3)CC2)nc1)C(=O)O` [Compound 122, 2-((6-((4-(6-((4-chloro-2-fluorobenzyl)oxy)pyridin-2-yl)piperidin-1-yl)methyl)pyridin-3-yl)oxy)-2-methylpropanoic acid], the EC50 was greater than 1000 nM.
The same measure for `O=C(O)/C=C/c1ccc(CN2CCC(c3cccc(OCc4ccc(Cl)cc4F)n3)CC2)nc1` [Compound 123, (E)-3-(6-((4-(6-((4-chloro-2-fluorobenzyl)oxy)pyridin-2-yl)piperidin-1-yl)methyl)pyridin-3-yl)acrylic acid]: 109 nM.
For `COc1nc(CCC(=O)O)ccc1CN1CCC(c2cccc(OCc3ccc(Cl)cc3F)n2)CC1` [Compound 124, 3-(5-((4-(6-((4-Chloro-2-fluorobenzyl)oxy)pyridin-2-yl)piperidin-1-yl)methyl)-6-methoxypyridin-2-yl)propanoic acid], the EC50 is greater than 1000 nM.
For `CC(Oc1ccc(CN2CCC(c3cccc(OCc4ccc(Cl)cc4F)n3)CC2)nc1)C(=O)O` (centres unmarked) [Compound 125, 2-((6-((4-(6-((4-chloro-2-fluorobenzyl)oxy)pyridin-2-yl)piperidin-1-yl)methyl)pyridin-3-yl)oxy)propanoic acid] the value was greater than 1000 nM; for `O=C(O)C1CC1c1ccc(CN2CCC(c3cccc(OCc4ccc(Cl)cc4F)n3)CC2)nc1` (centres unmarked) [Compound 126, 2-(6-((4-(6-((4-chloro-2-fluorobenzyl)oxy)pyridin-2-yl)piperidin-1-yl)methyl)pyridin-3-yl)cyclopropane-1-carboxylic acid], 817 nM; for `Fc1cc(Cl)ccc1COc1cccc(C2CCN(Cc3ccc(-c4nn[nH]n4)cn3)CC2)n1` [Compound 127, 2-((4-(6-((4-chloro-2-fluorobenzyl)oxy)pyridin-2-yl)piperidin-1-yl)methyl)-5-(2H-tetrazol-5-yl)pyridine], 147 nM.
Turning to `O=C(O)/C=C/c1cnc(CN2CCC(c3cccc(OCc4ccc(Cl)cc4F)n3)CC2)c(CC2CCCO2)c1` (centres unmarked) [Compound 128, (E)-3-(6-((4-(6-((4-chloro-2-fluorobenzyl)oxy)pyridin-2-yl)piperidin-1-yl)methyl)-5-((tetrahydrofuran-2-yl)methyl)pyridin-3-yl)acrylic acid], the 50% effective concentration (EC50) turned out to be 48.9 nM.
Consider `Cc1cc(C(=O)O)cnc1CN1CCC(c2cccc(OCc3ccc(Cl)cc3F)n2)CC1` [Compound 129, 6-((4-(6-((4-chloro-2-fluorobenzyl)oxy)pyridin-2-yl)piperidin-1-yl)methyl)-5-methylnicotinic acid], for which the EC50 worked out at 1500 nM.
For `CC(Nc1ccc(CN2CCC(c3cccc(OCc4ccc(Cl)cc4F)n3)CC2)nc1)C(=O)O` (centres unmarked) [Compound 130, 2-((6-((4-(6-((4-chloro-2-fluorobenzyl)oxy)pyridin-2-yl)piperidin-1-yl)methyl)pyridin-3-yl)amino)propanoic acid], the concentration giving a half-maximal response (EC50) is greater than 1000 nM.
Turning to `C/C(=C\c1cnc(CN2CCC(c3cccc4c3OC(c3ccc(Cl)cc3F)O4)CC2)n1C[C@@H]1CCO1)C(=O)O` (stereo partly drawn) [Compound 132a, (E)-3-(2-((4-(2-(4-chloro-2-fluorophenyl)benzo[d][1,3]dioxol-4-yl)piperidin-1-yl)methyl)-1-((S)-oxetan-2-ylmethyl)-1H-imidazol-5-yl)-2-methylacrylic acid], the EC50 was 1.6 nM.
With `C/C(=C\c1cnc(CN2CCC(c3cccc4c3O[C@@H](c3ccc(Cl)cc3)O4)CC2)n1C[C@@H]1CCO1)C(=O)O` [Compound 133a, (E)-3-(2-((4-((S)-2-(4-chlorophenyl)benzo[d][1,3]dioxol-4-yl)piperidin-1-yl)methyl)-1-(((S)-oxetan-2-yl)methyl)-1H-imidazol-5-yl)-2-methylacrylic acid], the EC50 was found to be 5.4 nM.
The same measure for `C/C(=C\c1cnc(CN2CCC(c3cccc4c3O[C@H](c3ccc(Cl)cc3)O4)CC2)n1C[C@@H]1CCO1)C(=O)O` [Compound 133b, (E)-3-(2-((4-((R)-2-(4-chlorophenyl)benzo[d][1,3]dioxol-4-yl)piperidin-1-yl)methyl)-1-(((S)-oxetan-2-yl)methyl)-1H-imidazol-5-yl)-2-methylacrylic acid]: 48 nM; for `C/C(=C\c1cnc(CN2CCC(c3cccc4c3O[C@@](C)(c3ccc(Cl)cc3)O4)CC2)n1C[C@@H]1CCO1)C(=O)O` [Compound 134a, (E)-3-(2-((4-((S)-2-(4-chlorophenyl)-2-methylbenzo [d][1,3]dioxol-4-yl)piperidin-1-yl)methyl)-1-(((S)-oxetan-2-yl)methyl)-1H-imidazol-5-yl)-2-methylacrylic acid]: 0.21 nM.
Take `C/C(=C\c1cnc(CN2CCC(c3cccc4c3O[C@](C)(c3ccc(Cl)cc3)O4)CC2)n1C[C@@H]1CCO1)C(=O)O` [Compound 134b, (E)-3-(2-((4-((R)-2-(4-chlorophenyl)-2-methylbenzo[d][1,3]dioxol-4-yl)piperidin-1-yl)methyl)-1-(((S)-oxetan-2-yl)methyl)-1H-imidazol-5-yl)-2-methylacrylic acid]: the concentration giving a half-maximal response (EC50) amounted to 17 nM.
Turning to `C[C@]1(c2ccc(Cl)cc2F)Oc2cccc(C3CCN(Cc4ncc(/C=C/C(=O)O)n4C[C@@H]4CCO4)CC3)c2O1` [Compound 135a, (E)-3-(2-((4-((S)-2-(4-chloro-2-fluorophenyl)-2-methylbenzo[d][1,3]dioxol-4-yl)piperidin-1-yl)methyl)-1-(((S)-oxetan-2-yl)methyl)-1H-imidazol-5-yl)acrylic acid], the half-maximal effective concentration (EC50) worked out at 0.033 nM.
Take `C[C@@]1(c2ccc(Cl)cc2F)Oc2cccc(C3CCN(Cc4ncc(/C=C/C(=O)O)n4C[C@@H]4CCO4)CC3)c2O1` [Compound 135b, (E)-3-(2-((4-((R)-2-(4-chloro-2-fluorophenyl)-2-methylbenzo[d][1,3]dioxol-4-yl)piperidin-1-yl)methyl)-1-(((S)-oxetan-2-yl)methyl)-1H-imidazol-5-yl)acrylic acid]: the concentration for a half-maximal effect (EC50) is 15 nM.
For the compound `CC1(c2ccc(Cl)cc2F)Oc2cccc(C3CCN(Cc4nnc(/C=C/C(=O)O)n4C[C@@H]4CCO4)CC3)c2O1` (stereo partly drawn) [Compound 136a, (E)-3-(5-((4-(2-(4-chloro-2-fluorophenyl)-2-methylbenzo[d][1,3]dioxol-4-yl)piperidin-1-yl)methyl)-4-(((S)-oxetan-2-yl)methyl)-4H-1,2,4-triazol-3-yl)acrylic acid], the EC50 stood at 0.11 nM.
On to `C/C(=C\c1nnc(CN2CCC(c3cccc4c3OC(C)(c3ccc(Cl)cc3F)O4)CC2)n1C[C@@H]1CCO1)C(=O)O` (stereo partly drawn) [Compound 137a, (E)-3-(5-((4-(2-(4-chloro-2-fluorophenyl)-2-methylbenzo[d][1,3]dioxol-4-yl)piperidin-1-yl)methyl)-4-(((S)-oxetan-2-yl)methyl)-4H-1,2,4-triazol-3-yl)-2-methylacrylic acid], for which the EC50 stood at 0.3 nM.
With `CCn1cncc1Cn1c(/C=C(\C)C(=O)O)cnc1CN1CCC(c2cccc3c2OC(C)(c2ccc(Cl)cc2F)O3)CC1` (centres unmarked) [Compound 138, (E)-3-(2-((4-(2-(4-chloro-2-fluorophenyl)-2-methylbenzo[d][1,3]dioxol-4-yl)piperidin-1-yl)methyl)-1-((1-ethyl-1H-imidazol-5-yl)methyl)-1H-imidazol-5-yl)-2-methylacrylic acid], the EC50 worked out at 0.0034 nM.
In the case of `CCn1cncc1Cn1c(/C=C(\C)C(=O)O)cnc1CN1CCC(c2cccc3c2O[C@@](C)(c2ccc(Cl)cc2F)O3)CC1` [Compound 138a, (S,E)-3-(2-((4-(2-(4-chloro-2-fluorophenyl)-2-methylbenzo[d][1,3]dioxol-4-yl)piperidin-1-yl)methyl)-1-((1-ethyl-1H-imidazol-5-yl)methyl)-1H-imidazol-5-yl)-2-methylacrylic acid], the concentration for a half-maximal effect (EC50) was found to be 0.0023 nM.
As for `CCn1cncc1Cn1c(/C=C(\C)C(=O)O)cnc1CN1CCC(c2cccc3c2O[C@](C)(c2ccc(Cl)cc2F)O3)CC1` [Compound 138b, (R,E)-3-(2-((4-(2-(4-chloro-2-fluorophenyl)-2-methylbenzo[d][1,3]dioxol-4-yl)piperidin-1-yl)methyl)-1-((1-ethyl-1H-imidazol-5-yl)methyl)-1H-imidazol-5-yl)-2-methylacrylic acid], the 50% effective concentration (EC50) was found to be 0.66 nM.
Consider `CCn1cncc1Cn1c(/C=C/C(=O)O)cnc1CN1CCC(c2cccc3c2O[C@@](C)(c2ccc(Cl)cc2F)O3)CC1` [Compound 139a, (S,E)-3-(2-((4-(2-(4-chloro-2-fluorophenyl)-2-methylbenzo[d][1,3]dioxol-4-yl)piperidin-1-yl)methyl)-1-((1-ethyl-1H-imidazol-5-yl)methyl)-1H-imidazol-5-yl)acrylic acid], for which the concentration for a half-maximal effect (EC50) was found to be 0.0012 nM.
For `CCn1cncc1Cn1c(/C=C/C(=O)O)cnc1CN1CCC(c2cccc3c2O[C@](C)(c2ccc(Cl)cc2F)O3)CC1` [Compound 139b, (R,E)-3-(2-((4-(2-(4-chloro-2-fluorophenyl)-2-methylbenzo[d][1,3]dioxol-4-yl)piperidin-1-yl)methyl)-1-((1-ethyl-1H-imidazol-5-yl)methyl)-1H-imidazol-5-4)acrylic acid] the value was 0.2 nM.
In the case of `CC1(c2ccc(Cl)cc2F)Oc2cccc(C3CCN(Cc4ncc(/C=C/C(=O)O)n4C[C@@H]4CCCO4)CC3)c2O1` (stereo partly drawn) [Compound 140a, (E)-3-(2-((4-(2-(4-chloro-2-fluorophenyl)-2-methylbenzo[d][1,3]dioxol-4-yl)piperidin-1-yl)methyl)-1-(((S)-tetrahydrofuran-2-yl)methyl)-1H-imidazol-5-yl)acrylic acid], the 50% effective concentration (EC50) is 0.09 nM.
Consider `COCCn1c(/C=C/C(=O)O)cnc1CN1CCC(c2cccc3c2OC(C)(c2ccc(Cl)cc2F)O3)CC1` (centres unmarked) [Compound 141, (E)-3-(2-((4-(2-(4-chloro-2-fluorophenyl)-2-methylbenzo[d][1,3]dioxol-4-yl)piperidin-1-yl)methyl)-1-(2-methoxyethyl)-1H-imidazol-5-yl)acrylic acid], for which the EC50 was 0.012 nM.
